Measured values as given in PubChem BioAssay (NCI).
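Growth conditions: 96-well plates. Treatment: test compound, 48 hours, 5 concentrations. Analysis: linear interpolation between bracketing concentrations; unreached endpoints set to highest concentration. At the TGI there is no net growth.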

What was measured:
Assay in all cases: NCI tumour cell line growth inhibition, 48 h
[1] = tested on: SNB-19 CNS
[2] = tested on: HCC-2998 colon
[3] = tested on: SK-MEL-2 melanoma
[4] = tested on: HL-60(TB) leukemia
[5] = tested on: K-562 leukemia
[6] = tested on: NCI-H23 lung
[7] = tested on: SK-MEL-5 melanoma
[8] = tested on: SF-295 CNS
[9] = tested on: CCRF-CEM leukemia
[10] = tested on: T-47D breast

SMILES	TGI [1]	TGI [2]	TGI [3]	TGI [4]	TGI [5]	TGI [6]	TGI [7]	TGI [8]	TGI [9]	TGI [10]
C=C(C)C(O)C(O)c1c(OC)ccc2ccc(=O)oc12 (centres undefined)	> 100 µM	> 100 µM	> 100 µM	> 100 µM	> 100 µM	> 100 µM	> 100 µM	> 100 µM	> 100 µM	> 100 µM
CCNC(=O)c1cc(/C=C/c2ccc([N+](=O)[O-])o2)nc2ccccc12	> 100 µM	> 100 µM	16.6 µM	> 100 µM	> 100 µM	> 100 µM	4.1 µM	> 100 µM	> 100 µM	> 100 µM
S=C1SCN(Cc2ccco2)CN1c1ccc(Br)cc1	72.2 µM	27.5 µM	32 µM	45.8 µM	15.9 µM	29.2 µM	24.5 µM	28.7 µM	67.4 µM	> 100 µM
CCOC(=O)c1cnc2oc3ccc(O)cc3c2c1-c1ccccc1	> 100 µM	> 100 µM	> 100 µM	> 100 µM	> 100 µM	> 100 µM	> 100 µM	> 100 µM	> 100 µM	> 100 µM
O=c1ccn(CC2(CO)CC(Cc3ccccc3)C2)c(=O)[nH]1 (centres undefined)		> 100 µM	> 100 µM	> 100 µM	> 100 µM	> 100 µM	> 100 µM	> 100 µM	> 100 µM	> 100 µM
CC(=O)Nc1ccc(OC2=CCN(C)CC2)cc1	> 100 µM	> 100 µM	> 100 µM	> 100 µM	> 100 µM	> 100 µM	> 100 µM	> 100 µM	> 100 µM	> 100 µM
CCOC(=O)c1c(N2CCCC2)ncn(Cc2ccccc2)c1=S	> 100 µM	> 100 µM	> 100 µM	> 100 µM	> 100 µM	> 100 µM	> 100 µM	> 100 µM	> 100 µM	> 100 µM
CCCC(=O)NC(Nc1ccc(S(=O)(=O)Nc2nc(C)cc(C)n2)cc1)(C(F)(F)F)C(F)(F)F	> 100 µM	> 100 µM	> 100 µM	> 100 µM	> 100 µM	> 100 µM	> 100 µM	> 100 µM	> 100 µM	> 100 µM
OC(CCNCc1ccccc1)c1ccc2ccccc2c1 (centres undefined)	47.9 µM	62.8 µM	38.9 µM	43.2 µM	50.9 µM	62.1 µM	32.4 µM	63.9 µM	> 100 µM	49.9 µM
CC1(C)[C@H]2CC[C@]1(C)[C@H](OC(=O)NNC(=O)O[C@@H]1C[C@@H]3CC[C@@]1(C)C3(C)C)C2	39.1 µM	27.7 µM	32.5 µM	62.7 µM	17 µM	34.9 µM	25.5 µM	28.8 µM	76.6 µM	23 µM
CCOP(=O)(OCC)C1CC(n2cc(C)c(=O)[nH]c2=O)OC1CO (centres undefined)	> 100 µM	> 100 µM	> 100 µM	> 100 µM	> 100 µM	> 100 µM	> 100 µM	> 100 µM	> 100 µM	> 100 µM
CCCCCCCCCCCCCCCCCCNc1ccn(C2OC(COP(=O)(O)OCC3OC(n4cc(F)c(NCCCCCCCCCCCCCCCCCC)nc4=O)CC3O)C(O)C2O)c(=O)n1 (centres undefined)	> 100 µM	> 100 µM	> 100 µM	> 100 µM	> 100 µM	> 100 µM	> 100 µM	> 100 µM	> 100 µM	> 100 µM
CSc1n[nH]c(N)c1C(=O)Nc1ccc(C)cc1	> 100 µM	> 100 µM	> 100 µM	> 100 µM	> 100 µM	> 100 µM	> 100 µM	> 100 µM	> 100 µM	94.8 µM
COC(=O)[C@H]1CO[C@H]2C/C(C)=C/CC/C(C)=C/CC[C@@]3(C)O[C@@H]3C[C@H]21	> 50 µM	17.9 µM	> 50 µM	26.2 µM	16.1 µM	> 50 µM	15.5 µM	> 50 µM	28.1 µM	> 50 µM
Cc1c2c(n(CCc3ccc(Cl)cc3)c1C)NC(c1ccccc1)C(C#N)S2(=O)=O (centres undefined)	> 100 µM	> 100 µM	> 68.9 µM	> 100 µM	47.8 µM	> 100 µM	14.3 µM	> 100 µM	5.07 µM	> 100 µM
O=C(Nc1nc2ccccc2s1)c1cc([N+](=O)[O-])ccc1Cl	> 100 µM	53.6 µM	> 100 µM	4.41 µM	> 100 µM	> 43.4 µM	25.1 µM	> 100 µM	8.77 µM	> 100 µM
Cc1ccc2c(c1C)C(=O)/C(=C/c1ccccc1C(=O)O)C2	> 100 µM	> 100 µM	> 100 µM	> 100 µM	> 100 µM	> 100 µM	> 100 µM	> 100 µM	> 100 µM	> 100 µM

SMILES	TGI [1]	TGI [2]	TGI [3]	TGI [4]	TGI [5]	TGI [6]	TGI [7]	TGI [8]	TGI [9]	TGI [10]
COc1ccccc1NC(=O)CC(=O)N1N=C(C)C(N=Nc2ccc(C(=O)O)cc2)C1=O (centres undefined)	> 100 µM	> 100 µM	> 100 µM	> 100 µM	> 100 µM	> 100 µM	> 100 µM	> 100 µM	> 100 µM	> 100 µM
O=C(Nc1ccccc1)N(CCCCN(Cc1ccccc1)C(=O)Nc1ccccc1)Cc1ccccc1	> 100 µM	> 100 µM	> 100 µM	> 100 µM	> 100 µM	> 100 µM	> 100 µM	> 100 µM	> 100 µM	> 100 µM
CC(=O)Oc1c2oc3ccc(Cl)cc3c(=O)c2c(O)c2ccsc12	> 100 µM	> 100 µM	> 100 µM	> 100 µM	> 100 µM	> 100 µM	> 100 µM	> 100 µM	> 100 µM	86.7 µM
COC(=O)c1c(O)ccc2c1c1c(n2Cc2cccc(C)c2)C(=O)c2ccccc2C1=O	27.9 µM	6.36 µM	27.4 µM	45.9 µM	35 µM	26 µM	26.3 µM	30.2 µM	22.5 µM	12.4 µM
COc1ccc(NC(C)=O)cc1N1C(=O)/C(=C\c2cc(OC)c(OC)c(OC)c2)SC1c1ccccc1 (centres undefined)	> 100 µM	> 100 µM	> 100 µM	41 µM	> 100 µM	> 100 µM	> 100 µM	> 100 µM	> 100 µM	> 100 µM
COc1ccc2nc3cc([N+](=O)[O-])ccc3c(Nc3ccc(S(=O)(=O)NC(C)=O)cc3)c2c1	> 100 µM	> 100 µM	> 100 µM	> 100 µM	> 100 µM	> 100 µM	> 100 µM	> 100 µM	> 100 µM	> 100 µM
O=C(c1cc(Cl)ccc1Cl)N1CCN(C(=O)c2cc(Cl)ccc2Cl)CC1	> 100 µM	> 100 µM		> 100 µM	> 100 µM	> 100 µM	> 100 µM	> 100 µM	> 100 µM	> 100 µM
O=C(OCCN=c1c2ccccc2ccc2ccccc12)c1ccc([N+](=O)[O-])cc1	> 100 µM	> 100 µM	> 100 µM	> 100 µM	> 100 µM	> 100 µM	> 100 µM	> 100 µM	> 100 µM	> 100 µM
c1cn(C23C4C5C6C4C2C6C53)cn1 (centres undefined)	> 100 µM	> 100 µM	> 100 µM	> 100 µM	> 100 µM	> 100 µM	> 100 µM	> 100 µM	> 100 µM	> 100 µM
C/C(Nc1ccc(F)cc1)=C1/CCOC1=O	> 100 µM	> 100 µM		> 100 µM	> 100 µM	> 100 µM	> 100 µM	> 100 µM	> 100 µM	> 100 µM
COc1ccc2c(c1)c(CC(=O)O)c(C)n2C(=O)c1ccc(Cl)cc1	> 100 µM	> 100 µM	> 100 µM	> 100 µM	> 100 µM	> 100 µM	> 100 µM	> 100 µM	> 100 µM	> 100 µM
O=c1[nH]nc(-c2ccccc2)n1/N=C/c1cccnc1	> 100 µM	> 100 µM		> 100 µM	> 100 µM	> 100 µM	> 100 µM	> 100 µM	> 100 µM	> 100 µM
Oc1c([Si](c2ccccc2)(c2ccccc2)c2ccccc2)cc2ccccc2c1-c1c(O)c([Si](c2ccccc2)(c2ccccc2)c2ccccc2)cc2ccccc12	> 100 µM	> 100 µM	> 100 µM	> 100 µM	> 100 µM	> 100 µM	> 100 µM	> 100 µM	> 100 µM	> 100 µM
CN(C)c1nc2oc(-c3ccccc3)c(-c3ccccc3)c2c2nnnn12	> 100 µM	> 100 µM		96.2 µM	> 100 µM	> 100 µM	> 100 µM	> 100 µM	> 100 µM	> 100 µM
N#Cc1ccccc1-c1nc2c3c(c(N)ccc3n1)C(=O)c1ccccc1-2	> 100 µM	> 100 µM	> 100 µM	> 100 µM	> 100 µM	> 100 µM	74.5 µM	> 100 µM	> 100 µM	> 100 µM
CC1=NN(c2nc(N)nc(/C(C#N)=C/c3cccn3-c3cc(Cl)cc(Cl)c3)n2)C(C)(C)C1	> 100 µM	> 100 µM	> 100 µM	> 100 µM		> 100 µM	> 100 µM	> 100 µM	> 100 µM	> 100 µM
COc1ccc(C)cc1Nc1nnc(-c2ccccc2N)s1	> 100 µM	> 100 µM	52.3 µM	73 µM	> 100 µM	> 100 µM	29.4 µM	> 100 µM	> 100 µM	> 100 µM
